We go through 9 compounds from patent publication US5196568A, “Compounds useful in enzymatic resolution systems and their preparation” (priority 1988, dated 1993).

The structures appear in SMILES notation. Structures can show the parent of a compound that is named as a salt.

Data set [1] concerns Protease XXIII from Aspergillus oryzae (Enzyme A). As to the kind of experiment: Homogeneous aqueous enzymatic resolution (ester hydrolysis) with Enzyme A. Type of data set: biochemical. Here is the method:
No further purification was performed.

Data set [2] has as its target T1, Protease VIII "Subtilopeptidase A" (subtilisin Carlsberg) (Enzyme B) (Bacillus licheniformis, UniProt P00780).
T1 sequence (P00780 106-379): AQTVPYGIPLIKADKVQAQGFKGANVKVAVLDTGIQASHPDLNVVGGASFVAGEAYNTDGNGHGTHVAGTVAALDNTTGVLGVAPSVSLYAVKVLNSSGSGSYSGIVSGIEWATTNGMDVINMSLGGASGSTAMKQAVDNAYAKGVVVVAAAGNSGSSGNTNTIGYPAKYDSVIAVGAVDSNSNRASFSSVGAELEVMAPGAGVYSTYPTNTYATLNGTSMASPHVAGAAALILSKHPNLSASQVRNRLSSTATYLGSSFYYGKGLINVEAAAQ
Nature of the data set: Homogeneous aqueous enzymatic resolution with Enzyme B. The format is biochemical.

The nature of data set [3]: Solubility of esters, absorbance of saturated solutions at 262 nm. Type of data set: physicochemical. To be noted: saturated solution, pH 7 (50 mM phosphate buffer), room temperature.
Data set [4] deals with Protease XVI from Bacillus subtilis (Enzyme C). As to the kind of experiment: Homogeneous aqueous enzymatic resolution with Enzyme C. The format is biochemical. Conditions: 100 mg enzyme C, 10 mmol ester in 100 ml 0.2M phosphate buffer pH 7.0, 20 hours, 20-22 C.
The target in data set [5] is T2, Protease VIII "Subtilopeptidase A" (Enzyme B) (Bacillus licheniformis, UniProt P00780).
T2 sequence (P00780 106-379): T1 sequence (P00780 106-379)
As to the kind of experiment: Rates of hydrolysis of the two enantiomers, pH stat, Enzyme B. Conditions: for Rate (hydrolysis): 50 mM ester, 50 mM Na3PO4 buffer pH 7.6. The format is biochemical. On the procedure:
(§1) 15 ml of a solution containing one enantiomer of the ester at a concentration of 50 mM, and Na3 PO4 buffer at 50 mM and pH 7.6 was observed using a pH stat device. 0.1 ml of a 50 mg/ml solution of enzyme B, made up from the commercially available preparation in 50 mM Na3 PO4 buffer at pH 7.6, were added. Rates of hydrolysis of both enantiomers of the ester compound were determined for the enzyme. The ratio of the rates of hydrolysis for the two enantiomers for the two enantiomers with respect to the enzyme indicate the stereospecificity of that enzyme's hydrolytic action on the racemic mixture of the ester. No evidence for the hydrolysis of the acetylthio ester portion of the substrate molecule was found.

Data set [6] relates to Protease XIV from Streptomyces griseus (Enzyme I). Nature of the data set: Rates of hydrolysis of the two enantiomers, pH stat, Enzyme I. Type of data set: biochemical. To be noted: for Rate (hydrolysis): 50 mM ester, pH 7.6. On the procedure: as §1, with “solution of protease enzyme I,” for “solution of enzyme B,”, “protease enzyme I, made up” for “of enzyme B, made up”, “for the protease enzyme. The” for “for the enzyme. The”

In data set [7] the test system is Protease XXIII from Aspergillus oryzae (Enzyme A). As to the kind of experiment: Rates of hydrolysis of the two enantiomers, pH stat, Enzyme A. The format is biochemical. Conditions: for Rate (hydrolysis): 50 mM ester, pH 7.6. On the procedure:
15 ml of a solution containing one enantiomer of the ester at a concentration of 50 mM, and Na3 PO4 buffer at 50 mM and pH 7.6 was observed using a pH stat device. 0.1 ml of a 50 mg/ml solution of enzyme A, made up from
the commercially available preparation in 50 mM Na3 PO4 buffer at pH 7.6, were added. Rates of hydrolysis of both enantiomers of the ester compound were determined for the enzyme. The ratio of the rates of hydrolysis for the two enantiomers for the two enantiomers with respect to the enzyme indicate the stereospecificity of that enzyme's hydrolytic action on the racemic mixture of the ester. No evidence for the hydrolysis of the acetylthio ester portion of the substrate molecule was found.

The target in data set [8] is T3, Protease XXIV bacterial protease (Enzyme J) (Bacillus licheniformis, UniProt P00780).
T3 sequence (P00780 106-379): T1 sequence (P00780 106-379)
As to the kind of experiment: Rates of hydrolysis of the two enantiomers, pH stat, Enzyme J. The format is biochemical. To be noted: for Rate (hydrolysis): 50 mM ester, pH 7.6. Here is the method:
as §1, with “Enzyme J,” for “enzyme B,”

Data set [9] deals with T4, Protease XXVII "Nagarse" (Enzyme D) (Bacillus amyloliquefaciens, UniProt P00782).
T4 construct: purchased Protease XXVII
T4 sequence (P00782 108-382): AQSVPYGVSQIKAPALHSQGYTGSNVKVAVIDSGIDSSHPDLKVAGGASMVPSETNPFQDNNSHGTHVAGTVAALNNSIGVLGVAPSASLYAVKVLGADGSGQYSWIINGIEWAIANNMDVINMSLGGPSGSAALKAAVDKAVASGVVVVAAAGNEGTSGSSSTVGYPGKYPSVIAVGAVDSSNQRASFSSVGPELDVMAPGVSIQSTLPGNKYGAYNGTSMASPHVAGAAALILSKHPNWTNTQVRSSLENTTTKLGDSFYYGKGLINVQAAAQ
As to the kind of experiment: Rates of hydrolysis of the two enantiomers, pH stat, Enzyme D. The format is biochemical. To be noted: for Rate (hydrolysis): 50 mM ester, pH 7.6. On the procedure: as §1, with “D,” for “B,”, “thioacetyl” for “acetylthio”

The conditions of data set [10]: cited from earlier work.
Data set [11] deals with T4, Protease XXVII "Nagarse" (Enzyme D). As to the kind of experiment: Homogeneous aqueous enzymatic resolution with Enzyme D. To be noted: acid product (R); 150 mg enzyme D, pH 7.8. The format is biochemical.
The subject of data set [12] is Pig Liver Esterase (E). As to the kind of experiment: Homogeneous aqueous enzymatic resolution with Enzyme E. To be noted: 30 mg Pig Liver Esterase. Type of data set: biochemical.

On to `CC(C)Cc1ccc(C(C)C(=O)OCCS(=O)(=O)O)cc1` (stereo not drawn) [Compound 2, Sodium Salt of 2-Sulfoethyl Ester of 2-(4-Isobutylphenyl)propanoic Acid], for which the “% e.e.” value in data set [1] (acid product (R), 150 mg enzyme A, 125 ml buffer pH 7.0, 18 hours) is greater than 99%; in data set [2] (acid product (R), 150 mg enzyme B, 125 ml buffer pH 7.0, 18 hours), 90.0%.

In the case of `CC(C)Cc1ccc(C(C)C(=O)OCCCCS(=O)(=O)O)cc1` (stereo not drawn) [Compound 4, Potassium Salt of 4-Sulfobutyl Ester of 2-(4-Isobutylphenyl)propanoic Acid], the Solubility in [3] turned out to be 1130 mM. For the same compound, in [4], the “% CONVERSION” value is recorded as 22.0%.

As to `CC(=O)SC[C@H](C)C(=O)OCS(=O)(=O)O` [Compound 15, Potassium Salt of the Sulfomethyl Ester of L-(+)-S-3-Acetylthio-2-methylpropanoic Acid], the “Rate Ratio L/D” value in [5] came out at 2.1; in [6], 1.7; in data set [7] it was 2.3; in data set [8], 1.1; in [9], 1.1. For the same compound, the “Rate (hydrolysis)” value in data set [5] is listed as 135 umols/hr/mg; in data set [6], 105 umols/hr/mg; in data set [7] it was 12 umols/hr/mg; in data set [8] it was 65 umols/hr/mg; in data set [9], 29 umols/hr/mg.

In the case of `CC(CSC(=O)c1ccccc1)C(=O)OCS(=O)(=O)O` (racemic) [Compound 16, Potassium Salt of the Sulfomethyl Ester of (±)-S-3-Benzoylthio-2-methylpropanoic Acid], the “% CONVERSION” value in data set [1] (100 mg enzyme A, 10.0 mmol ester in 100 ml 2M Na3PO4 buffer pH 7.0, 25 C, 18 hours) was found to be 53%. Moreover, the “% e.e.” value in data set [1] (acid product (S), 100 mg enzyme A, pH 7.0, 25 C, 18 hours) stood at 3%; in data set [2] (acid product (S), 100 mg enzyme B, pH 7.0, 25 C, 18 hours), 10%.

In the case of `CC(C)NCC(O)COc1cccc2ccccc12` [L-form of propranolol, propranolol], the “times more potent than the D-enantiomer” value in [10] (L-form vs D-enantiomer) is 100 times.

For `CC(C)Cc1ccc(C(C)C(=O)OCCOP(=O)(O)O)cc1` (stereo not drawn) [Compound 5, Disodium Salt of the Phosphoric Acid Ester of the 2-Hydroxyethyl Ester of 2-(4-Isobutylphenyl)propanoic Acid], the “% CONVERSION” value in [4] came out at 5.3%.

With `COc1ccc2cc([C@H](C)C(=O)O)ccc2c1` (stereo in doubt) [naproxen, (+)-S-2-(6-methoxy-2-naphthyl)propanoic acid], in data set [10] (S(+) enantiomer vs R(-)), the “times more therapeutically potent than its R(-) counterpart” value is 28 times.

On to `CC(=O)SC[C@@H](C)C(=O)OCS(=O)(=O)O` [Compound 14, Potassium Salt of the Sulfomethyl Ester of D-(-)-S-3-Acetylthio-2-methylpropanoic Acid], for which the “Rate (hydrolysis)” value in data set [5] was 65 umols/hr/mg; in data set [6], 63 umols/hr/mg; in data set [7] it was 5.3 umols/hr/mg; in [8] it was 61 umols/hr/mg; in data set [9] it was 27 umols/hr/mg.

Turning to `CC(C)Cc1ccc(C(C)C(=O)OCCCS(=O)(=O)O)cc1` (stereo not drawn) [Compound 3, Potassium Salt of 3-Sulfopropyl Ester of 2-(4-Isobutylphenyl)propanoic Acid], the “% CONVERSION” value in data set [1] (100 mg enzyme A, 10 mmol ester in 100 ml 0.2M phosphate buffer pH 7.0, 20 hours, 20-22 C) stood at 50.0%; in [12] (0.010 mol ester in 100 ml 0.2M sodium phosphate buffer at pH 7.8 (heading: pH 7.0)) it was 12.1%. Besides, the “conversion of the racemic ester to acid” value in [1] (1.00 gm enzyme A, about 1 M ester, 0.1M potassium phosphate pH 7.0, 23.9 hours, room temperature, by NaOH titration) was 29%. For the same compound, the “% e.e.” value in data set [11] worked out at 91.0%; in data set [12] (acid product (R), pH 7.8 (heading: pH 7.0)), 88.0%.

In general, Solubility refers to the concentration that dissolves in the medium under given conditions.
